{"source": "paper PMC3588144", "about": "(Molecular cancer therapeutics, 2012)", "key": {"NCI-N87 xenograft": {"test_system": "NCI-N87 xenograft", "assay": "HER2 overexpressing gastric NCI-N87 xenograft model", "settings": "25 mg/kg i.v.; not statistically significant"}, "436 cancer cell lines": {"test_system": "436 cancer cell lines", "format": "cell-based, human"}, "MV4-11 cells (FLT3-ITD)": {"test_system": "MV4-11 cells (FLT3-ITD)", "format": "cell-based, human", "settings": "100 nmol/L for 3 hours"}, "[1]": {"assay": "tolerability / maximum-tolerated dose", "format": "in vivo, mice", "settings": "for maximum observed body weight loss: 14 days, male Balb/C nude mice"}, "[2]": {"assay": "pharmacokinetics after a single oral dose", "design": "species or system mice", "settings": "mouse, in vivo"}, "[3]": {"test_system": "pS6 and pAkt in COLO-205 tumor tissue", "assay": "pharmacodynamic markers in COLO-205 tumors", "format": "in vivo, mice", "settings": "25 mg/kg, 1h after the last dose on day 17"}, "[4]": {"test_system": "pAkt(S473) and pS6(S240/244) in PC3 tumor tissue", "settings": "mouse, in vivo"}}}
{"smiles": "O=c1[nH]cc(F)c(=O)[nH]1", "note": "[5-FU, 5-fluorouracil]", "values": [{"measurement": "tumor growth inhibition", "setting": "NCI-N87 xenograft", "result": 32, "unit": "%"}]}
{"smiles": "CN(C)C/C=C/C(=O)Nc1cc2c(Nc3ccc(F)c(Cl)c3)ncnc2cc1O[C@H]1CCOC1", "note": "[BIBW2992]", "values": [{"measurement": "sensitivity of ERBB2-amplified cells with coincident PIK3CA mutations", "setting": "436 cancer cell lines", "result": "did not observe increased sensitivity"}]}
{"smiles": "CO[C@H]1C[C@@H]2CC[C@@H](C)[C@@](O)(O2)C(=O)C(=O)N2CCCC[C@H]2C(=O)O[C@H]([C@H](C)C[C@@H]2CC[C@@H](OCCO)[C@H](OC)C2)CC(=O)[C@H](C)/C=C(\\C)[C@@H](O)[C@@H](OC)C(=O)[C@H](C)C[C@H](C)/C=C/C=C/C=C/1C", "note": "[Everolimus, everolimus, reference compound]", "values": [{"measurement": "inhibition of phosphorylation of Akt", "setting": "MV4-11 cells (FLT3-ITD)", "result": "not able to inhibit"}, {"measurement": "tumor growth inhibition (TGI)", "setting": "PC3 xenograft; 5 mg/kg p.o. daily, 28 days", "result": 133, "unit": "%"}]}
{"smiles": "Cc1nc2c(-c3cnc(N)nc3)nc(N3CCOCC3)nc2n1C(C)C", "note": "[VS-5584, 5-(9-isopropyl-8-methyl-2-morpholin-4-yl-9H-purin-6-yl)-pyrimidin-2-ylamine]", "values": [{"measurement": "maximum observed body weight loss", "setting": "[1]; 25 mg/kg once daily, data not shown", "result": 3.1, "unit": "%"}, {"measurement": "maximum observed body weight loss", "setting": "[1]; 35 mg/kg once daily, data not shown", "result": 13.9, "unit": "%"}, {"measurement": "peripheral blood cell counts", "setting": "[1]; 25 and 35 mg/kg, data not shown", "result": "remained within normal levels without significant changes"}, {"measurement": "tolerability of a single dose", "setting": "[1]; single dose up to 100 mg/kg", "result": "well tolerated"}, {"measurement": "Tmax", "setting": "[2]", "result": 0.9, "unit": "h"}, {"measurement": "half-life", "setting": "[2]", "result": 10, "unit": "h"}, {"measurement": "reduction of pAkt in tumor", "setting": "[3]", "result": 85, "unit": "%"}, {"measurement": "reduction of pS6 in tumor", "setting": "[3]", "result": 95, "unit": "%"}, {"measurement": "weight loss (mean)", "setting": "PC3 xenograft; 11 and 25 mg/kg, day 27", "result": 4.7, "unit": "%"}, {"measurement": "pAkt(S473) blocked", "setting": "[4]", "result": "≥ 90", "unit": "%"}, {"measurement": "pS6(S240/244) blocked", "setting": "[4]", "result": "≥ 90", "unit": "%"}]}
